# Measurements from US20260335314A1, “CRYSTALLINE SALTS OR AMORPHOUS FORMS OF 2-((1H-PYRAZOL-3-YL)METHYL)-6-((6-AMINOPYRIDIN-2-YL)METHYL)-4-METHYL-4,6-DIHYDRO -5H-THIAZOLO[5',4':4,5]PYRROLO[2,3-D]PYRIDAZIN-5-ONE” (Agios Pharmaceuticals, Inc., priority 2023, published 2026).
# Experiments:
# [1] = Dynamic vapor sorption (moisture uptake); assay type: physicochemical; settings: 25° C.
# Procedure: Dynamic Vapor Sorption (DVS) was carried out using a TA Instruments Q5000 Dynamic Vapor Sorption analyzer. The instrument was calibrated with standard weights and a sodium bromide standard for humidity. Approximately 10-25 mg of sample was loaded into a metal-coated quartz pan for analysis. […] The movement from one step to the next occurred either after satisfying the equilibrium criterion of 0.01% weight change or, if the equilibrium criterion was not met, after one hour. The percent weight change values were calculated using Microsoft Excel®.
# [2] = Pharmacokinetics / absolute bioavailability in male Sprague Dawley rats; assay type: in vivo; settings: for AUC(0-inf): rat; for AUC(0-inf) / AUCinf: plasma
# Procedure: Twenty-one (21) male Sprague Dawley rats (purchased from Shanghai Laboratory Animal Center Co., Ltd., Shanghai, China) were randomized into 7 groups (3 animals per group). The animals fasted overnight, the forms of Compound 1 shown in Table 7 were administered by oral gavage, and the animals were fed 4 hours post-dose.
# Blood was serially collected from each animal at 0 (pre-dose), 0.083, 0.25, 0.5, 1, 2, 4, 8, and 24 h post-dose. For each collection, the animal was restrained manually, and approximately 150 μL of blood sample was collected via the tail vein into K2EDTA tubes. Plasma samples were stored at approximately −70° C. until analysis.
# To enable the calculation of absolute bioavailability, Compound 1 was formulated as a solution in 10% N-methyl-2-pyrrolidone, 10% Solutol HS 15, and 80% saline and administered at 1 mg/kg as intravenous (IV) bolus dose to a separate group of male Sprague Dawley rats, and blood samples were collected at similar timepoints to those shown above. Further, plasma samples were obtained from the collected samples and stored at approximately −70° C. until analysis.
# The concentration of Compound 1 in the plasma samples was determined by LC-MS/MS analysis.
# A 20 μL aliquot of each plasma sample was mixed with 200 μL of acetonitrile containing glipizide as an internal standard (40 ng/mL). The resulting mixture was vortexed at 1500 rpm for 2 min and centrifuged at 5800 rpm for 10 min. A 1 μL sample from the supernatant was injected into LC-MS/MS.
# LC-MS/MS analysis was conducted on a UPLC/MS-MS (API 6500+) system under the conditions outlined in Table 8
# The absolute bioavailability of each form of Compound 1 was determined by dividing the AUCinf of the form in question by the AUCinf obtained historical data by IV administration of Compound 1.
# [3] = pH solubility in buffers; assay type: physicochemical; settings: for pH (24 h): pH of solution at 24 h; for solubility / solubility at 2 h: 37 °C
# Procedure: (§1) Solubility samples were prepared by weighing about 10 mg of each salt and adding 1 mL of media and vortexed briefly to obtain suspensions. […] For such instances, the solubility is calculated as greater than (>).
# (§2) The sample vials were capped and wrapped in aluminum foil, and placed on a shaker at 37° C. The shaker was set at about 100 rpm and vials were removed at specified time points. The vials were observed, and the supernatants were transferred to Eppendorf tubes and centrifuged at 3K for 10 minutes. The clear supernatants were transferred to HPLC vials. The samples were diluted prior to HPLC analysis using the dilution media by 2× or used without dilution. pH was measured of the 24 hour timepoint after centrifugation using a micro pH probe.
# (§3) • pH 2 buffer USP: Mixed 50 mL of 0.2M potassium chloride and 13 mL 0.2M HCl, diluted to 200 mL with water. • pH 4.5 buffer USP: 5.44 g of potassium dihydrogen phosphate was diluted to 1000 mL with water. • pH 6.8 buffer USP: Mixed 50 mL of 0.2M potassium phosphate and 22.4 mL 0.2M sodium hydroxide. Diluted with water to 200 mL. • SGF: 2.0109 g of NaCl was dissolved in water, added 7 mL of conc. HCl and diluted to 1 L. • FeSSIF: 4.0321 g of NaOH and 11.8726 g of NaCl were dissolved in water, added 8.65 mL of glacial acetic acid, adjusted the pH to 5.0 and diluted to 1 L. • FaSSIF: 0.4247 g of NaOH, 3.9548 g of sodium phosphate monobasic monohydrate and 6.1900 g of NaCl were dissolved in water, adjusted the pH to 6.5 and diluted to 1 L.
# (§4) At each time point, the solution was analyzed by HPLC and residue was vacuum dried and analyzed by XRPD. The pH of the solution was measured at 24 hours.
# [4] = Kinetic solubility in biorelevant media; assay type: physicochemical
# Procedure: as §1, §2
# as §3, with “adjusted the pH to 5.0 and diluted to 1 L. • FaSSIF:” left out
# (§5) Kinetic solubility was determined in biorelevant media. At each time point, the solution was analyzed by HPLC. The solid residue was analyzed by XRPD at selected time points. The pH of the solution was measured at 24 hours.
# [5] = XRPD of solid residue from solubility samples (salt disproportionation); assay type: physicochemical; settings: FaSSIF residue
# Procedure: as §4, §5
# [6] = from 2% to 95% relative humidity
# [7] = from 5% to 95% relative humidity
compound,measurement,setting,value
Cn1c2nc(Cc3cc[nH]n3)sc2c2cnn(Cc3cccc(N)n3)c(=O)c21.O=C(O)C(O)C(O)C(=O)O [Form I],moisture uptake (DVS),[1]; [6],about 10.5%
"Cn1c2nc(Cc3cc[nH]n3)sc2c2cnn(Cc3cccc(N)n3)c(=O)c21 [Compound 1, 2-((1H-pyrazol-3-yl)methyl)-6-((6-aminopyridin-2-yl)methyl)-4-methyl-4,6-dihydro-5H-thiazolo[5′,4′:4,5]pyrrolo[2,3-d]pyridazin-5-one]",Absolute % F,"[2]; IV administration (historical), 1 mg/kg, reference",100%
same,AUC(0-inf),"[2]; iv, 1 mg/kg, IV bolus (historical)",1.56 µg·h/mL
Cn1c2nc(Cc3cc[nH]n3)sc2c2cnn(Cc3cccc(N)n3)c(=O)c21 [Form D-2],moisture uptake (DVS),[1]; [6],about 1.1%
Cn1c2nc(Cc3cc[nH]n3)sc2c2cnn(Cc3cccc(N)n3)c(=O)c21 [Form B],dissolution in 0.1N HCl,[3]; 0.1N HCl,dissolved instantly
same,pH (24 h),[3]; 0.1 N HCl,1.44
same,solubility,"[3]; 0.1 n hcl, dissolved instantly, estimated by adding 100 uL aliquots, read-out: solubility",> 16.7 mg/mL
same,solubility,"[3]; pH 2 (USP), 2 h, 120 min",2.59 mg/mL
same,solubility,"[3]; pH 2 (USP), 24 h, 1440 min",2.40 mg/mL
same,pH (24 h),[3]; pH 2 (USP),2.26
same,solubility,"[3]; pH 4.5 (USP), 24 h, 1440 min",0.27 mg/mL
same,pH (24 h),[3]; pH 4.5 (USP),4.01
same,solubility,"[3]; pH 6.8 (USP), 24 h, 1440 min",0.01 mg/mL
same,pH (24 h),[3]; pH 6.8 (USP),5.09
same,solubility at 2 h,"[3]; ph 4.5 buffer (usp), pH 4.5, pH 4.5 (USP), 2 h",0.07 mg/mL
same,solubility at 2 h,"[3]; ph 6.8 buffer (usp), pH 6.8, pH 6.8 (USP), 2 h",0.03 mg/mL
same,solubility,"[4]; FaSSIF pH 6.5, 10 min, 37 °C, 10 min",0.38 (suspect) mg/mL
same,solubility,"[4]; FaSSIF pH 6.5, 30 min, 37 °C, 30 min",0.36 (suspect) mg/mL
same,solubility,"[4]; FaSSIF pH 6.5, 1 h, 37 °C, 60 min",0.24 mg/mL
same,solubility,"[4]; FaSSIF pH 6.5, 2 h, 37 °C, 120 min",0.57 mg/mL
same,solubility,"[4]; FaSSIF pH 6.5, 4 h, 37 °C, 240 min",1.40 (suspect) mg/mL
same,solubility,"[4]; FaSSIF pH 6.5, 24 h, 37 °C, 1440 min",0.70 mg/mL
same,pH (24 h),"[4]; FaSSIF pH 6.5, pH of solution at 24 h",3.39
same,solubility,"[4]; FeSSIF pH 5.0, 1 h, 37 °C, 60 min",0.08 mg/mL
same,pH (24 h),"[4]; FeSSIF pH 5.0, pH of solution at 24 h",4.79
same,pH (24 h),"[4]; SGF pH 1.2, pH of solution at 24 h",1.0
same,solubility at 10 min,"[4]; fessif, pH 5, FeSSIF pH 5.0, 10 min, 37 °C",0.34 mg/mL
same,solubility at 0.5 h,"[4]; fessif, pH 5, FeSSIF pH 5.0, 30 min, 37 °C",0.13 mg/mL
same,solubility at 2 h,"[4]; fessif, pH 5, FeSSIF pH 5.0, 2 h, 37 °C",0.11 mg/mL
same,solubility at 4 h,"[4]; fessif, pH 5, FeSSIF pH 5.0, 4 h, 37 °C",0.1 mg/mL
same,solubility at 24 h,"[4]; fessif, pH 5, FeSSIF pH 5.0, 24 h, 37 °C",0.06 mg/mL
same,solubility,"[4]; sgf, pH 1.2, SGF pH 1.2, 37 °C, dissolved instantly, from total volume of media added, read-out: solubility",> 10 mg/mL
same,dissolution in SGF,[4]; simulated gastric fluid (SGF),dissolved instantly
same,salt disproportionation by XRPD,[5],some salt remained
same,"absolute bioavailability, comparison with other forms","[2]; oral gavage, 10 mg/kg",higher than the measured bioavailability of the other forms of Compound 1
same,AUCinf,"[2]; oral gavage, 10 mg/kg, fasted overnight",10.846 µg·h/mL
same,Absolute % F,"[2]; oral gavage, 10 mg/kg, vs historical IV AUCinf, 10 mg/kg",70%
same,moisture uptake (DVS),[1]; [7],about 0.9%
Cn1c2nc(Cc3cc[nH]n3)sc2c2cnn(Cc3cccc(N)n3)c(=O)c21 [Form E],AUCinf,"[2]; oral gavage, 10 mg/kg, fasted overnight, listed as Free Base Hydrate Form E (wet milled)",7.378 µg·h/mL
same,Absolute % F,"[2]; oral gavage, 10 mg/kg, vs historical IV AUCinf, listed as Free Base Hydrate Form E (Unmilled), 10 mg/kg",45%
same,Absolute % F,"[2]; oral gavage, 10 mg/kg, vs historical IV AUCinf, listed as Free Base Hydrate Form E (wet milled), 10 mg/kg",47%
same,AUC(0-inf),"[2]; po, 10 mg/kg, oral gavage, fasted overnight",6.96 µg·h/mL
same,moisture uptake (DVS),[1]; [7],about 1.3%
Cn1c2nc(Cc3cc[nH]n3)sc2c2cnn(Cc3cccc(N)n3)c(=O)c21 [Form D-1],moisture uptake (DVS),[1]; [7],about 2.8%
